Assays:
Assay in all cases: relative IC50 (inflection point of fitted viability curve, relative to fitted max inhibition); higher = less sensitive
Settings in all cases: 72 h
DERL-7 (IL-2 2.5 ng/mL) = system: DERL-7 (IL-2 2.5 ng/mL)
Protocol: (§1)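 Drug sensitivity and resistance testing: 5 concentrations over a 10,000-fold range, 72 h at 37 °C, viability by CellTiter-Glo normalised to DMSO and benzethonium chloride controls. IC50 is the inflection point of a logistic fit (min fixed at 0, max fitted), so it is relative to the fitted maximal inhibition. Kept only where fitted max inhibition is at least 50%.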

IMC-1 (IL-2 20 ng/mL) = system: IMC-1 (IL-2 20 ng/mL)
Protocol: as §1

KAI3 (IL-2 2.5 ng/mL) = system: KAI3 (IL-2 2.5 ng/mL)
Protocol: as §1

KHYG-1 (IL-2 2.5 ng/mL) = system: KHYG-1 (IL-2 2.5 ng/mL)
Protocol: as §1

NK-92 (IL-2 2.5 ng/mL) = system: NK-92 (IL-2 2.5 ng/mL)
Protocol: as §1

NK-YS (IL-2 2.5 ng/mL) = system: NK-YS (IL-2 2.5 ng/mL)
Protocol: as §1

NKL (IL-2 2.5 ng/mL) = system: NKL (IL-2 2.5 ng/mL)
Protocol: as §1

SNK-6 (IL-2 2.5 ng/mL) = system: SNK-6 (IL-2 2.5 ng/mL)
Protocol: as §1

YT (IL-2 2.5 ng/mL) = system: YT (IL-2 2.5 ng/mL)
Protocol: as §1

[1] = system: normal primary NK cells, pool 1 (3 donors) (IL-2 2.5 ng/mL)
Protocol: as §1

[2] = system: normal primary NK cells, pool 1 (3 donors), resting (IL-2 0 ng/mL)
Protocol: as §1

[3] = system: normal primary NK cells, pool 3 (3 donors) (IL-2 2.5 ng/mL)
Protocol: as §1

[4] = system: normal primary NK cells, pool 2 (3 donors) (IL-2 2.5 ng/mL)
Protocol: as §1

| SMILES | relative IC50 (DERL-7 (IL-2 2.5 ng/mL)) | relative IC50 (IMC-1 (IL-2 20 ng/mL)) | relative IC50 (KAI3 (IL-2 2.5 ng/mL)) | relative IC50 (KHYG-1 (IL-2 2.5 ng/mL)) | relative IC50 (NK-92 (IL-2 2.5 ng/mL)) | relative IC50 (NK-YS (IL-2 2.5 ng/mL)) | relative IC50 (NKL (IL-2 2.5 ng/mL)) | relative IC50 (SNK-6 (IL-2 2.5 ng/mL)) | relative IC50 (YT (IL-2 2.5 ng/mL)) | relative IC50 [1] | relative IC50 [2] | relative IC50 [3] | relative IC50 [4] |
| --- | --- | --- | --- | --- | --- | --- | --- | --- | --- | --- | --- | --- | --- |
| O=C(Nc1ccncc1)C(=O)c1cn(Cc2ccc(Cl)cc2)c2ccccc12 [Indibulin] | 922 nM | 339 nM | 45 nM | 103 nM | 48.5 nM | 77.7 nM | 85.6 nM | 2.97 nM | 131 nM | > 10000 nM | – | – | – |
| NC(=O)c1ccc(I)c([N+](=O)[O-])c1 [Iniparib] | – | – | – | – | – | – | – | – | – | 1620 nM | 1360 nM | – | – |
| CCc1c2c(nc3ccc(OC(=O)N4CCC(N5CCCCC5)CC4)cc13)-c1cc3c(c(=O)n1C2)COC(=O)[C@]3(O)CC [Irinotecan] | 597 nM | 347 nM | 146 nM | 152 nM | 140 nM | 282 nM | 73 nM | 260 nM | 577 nM | – | – | – | – |
| O=C(c1ccc(/C=C/c2n[nH]c3ccccc23)cc1)N1CCNCC1 [KW-2449] | 920 nM | > 2500 nM | – | 807 nM | – | – | – | 687 nM | – | – | – | > 2500 nM | – |
| O=C(O)c1ccc(Nc2ncc3c(n2)-c2ccc(Cl)cc2C(c2c(F)cccc2F)=NC3)cc1 [MLN-8054] | 763 nM | 1540 nM | 291 nM | 259 nM | 563 nM | 125 nM | 107 nM | 73.6 nM | 190 nM | – | – | – | – |
| CCN(CC)CCCC(C)Nc1c2ccc(Cl)cc2nc2ccc(OC)cc12 (configuration not stated) [Mepacrine] | – | 1500 nM | – | – | – | – | – | – | – | – | – | 1550 nM | 1220 nM |
| S=c1[nH]cnc2nc[nH]c12 [Mercaptopurine] | – | 1590 nM | 2160 nM | 1420 nM | 393 nM | 725 nM | – | 137 nM | 1410 nM | – | > 10000 nM | – | – |
| C[C@H]1C[C@@H]2[C@H]([C@@H](O)C[C@@]3(C)[C@H]2CC[C@]3(O)C(=O)CO)[C@@]2(C)C=CC(=O)C=C12 [Methylprednisolone] | 22.1 nM | > 10000 nM | – | 197 nM | – | – | 13.3 nM | – | 164 nM | 33.4 nM | 9.66 nM | 88.8 nM | 41.7 nM |
| FC(F)(F)c1ccc(/C=C/c2nc(COc3ccc(CCCCn4ccnn4)cc3)co2)cc1 [Mubritinib] | – | 11.2 nM | – | 45.7 nM | – | 42 nM | 56 nM | – | – | 12.2 nM | 12 nM | – | – |
| CN(C)C(=O)c1cc2cnc(Nc3ccc(N4CCNCC4)cn3)nc2n1C1CCCC1 [NVP-LEE011] | – | – | – | 1060 nM | – | – | – | – | – | 2200 nM | 630 nM | – | – |
| CCOc1cc2ncc(C#N)c(Nc3ccc(OCc4ccccn4)c(Cl)c3)c2cc1NC(=O)/C=C/CN(C)C [Neratinib] | 216 nM | – | – | – | 206 nM | – | – | – | – | – | 364 nM | – | – |
| Cc1sc2c(c1C)C(c1ccc(Cl)cc1)=N[C@@H](CC(=O)Nc1ccc(O)cc1)c1nnc(C)n1-2 [OTX015] | 48.1 nM | 630 nM | 437 nM | 145 nM | – | 229 nM | 75.2 nM | 43 nM | 241 nM | 171 nM | – | 804 nM | 393 nM |
| O=C(O)C(=O)O.[NH-][C@@H]1CCCC[C@H]1[NH-].[Pt+2] [Oxaliplatin] | – | 9490 nM | – | – | – | – | – | – | – | – | – | 9130 nM | 9290 nM |
| CC(=O)c1c(C)c2cnc(Nc3ccc(N4CCNCC4)cn3)nc2n(C2CCCC2)c1=O [Palbociclib] | 1380 nM | 2620 nM | 3090 nM | 279 nM | 1780 nM | 413 nM | 1550 nM | – | – | 3580 nM | 4040 nM | 3430 nM | 2850 nM |
| Cc1cnc(NC(=O)Nc2cc(Br)c(C)cc2OC[C@@H]2CNCCO2)cn1 [Rabusertib] | – | – | 203 nM | 197 nM | 172 nM | 279 nM | 192 nM | 179 nM | – | > 1000 nM | – | – | – |
| CNC(=O)c1cc(Oc2ccc(NC(=O)Nc3cc(C(C)(C)C)nn3-c3ccc4ncccc4c3)c(F)c2)ccn1 [Rebastinib] | – | – | – | – | – | – | – | – | – | > 1000 nM | – | > 1000 nM | > 1000 nM |
| CCS(=O)(=O)c1cccc(-c2cc(C(=O)NC3CCN(C)CC3)c(C)c3[nH]c4ncc(C)cc4c23)c1 [TAK-901] | 50.2 nM | 116 nM | 116 nM | 208 nM | – | 30.8 nM | 105 nM | 135 nM | – | 303 nM | – | – | – |
| Cc1cc(C(C)Nc2ccccc2)c2nc(N3CCOCC3)cc(=O)n2c1 (configuration not stated) [TGX-221] | – | > 10000 nM | – | – | – | – | – | – | – | – | 1450 nM | – | – |
| C=CC[C@@H]1/C=C(\C)C[C@H](C)C[C@H](OC)[C@H]2O[C@@](O)(C(=O)C(=O)N3CCCC[C@H]3C(=O)O[C@H](/C(C)=C/[C@@H]3CC[C@@H](O)[C@H](OC)C3)[C@H](C)[C@@H](O)CC1=O)[C@H](C)C[C@@H]2OC [Tacrolimus] | – | – | – | – | – | – | – | – | – | – | 1620 nM | – | – |
| COc1cc(Nc2ncc(F)c(Nc3ccc4c(n3)NC(=O)C(C)(C)O4)n2)cc(OC)c1OC [Tamatinib] | – | 4100 nM | 536 nM | 1340 nM | 2180 nM | 1650 nM | 992 nM | 3590 nM | 2580 nM | – | > 10000 nM | 2800 nM | – |
| COc1cccc2c1c(O)c(C(=O)N(C)c1ccc(C(F)(F)F)cc1)c(=O)n2C [Tasquinimod] | > 10000 nM | – | – | – | – | – | – | – | – | – | – | > 10000 nM | > 10000 nM |
| CC(C)C[C@@H](C(=O)N[C@H](C(=O)OC1CCCC1)c1ccccc1)[C@H](O)C(=O)NO [Tosedostat] | 23.3 nM | – | – | 606 nM | – | – | 1960 nM | – | 1520 nM | 942 nM | 274 nM | – | 903 nM |
| CC1=C(/C=C/C(C)=C/C=C/C(C)=C/C(=O)O)C(C)(C)CCC1 [Tretinoin] | – | > 10000 nM | – | – | – | – | – | – | – | – | – | > 10000 nM | – |
| CC1(C)CCC(CN2CCN(c3ccc(C(=O)NS(=O)(=O)c4ccc(NCC5CCOCC5)c([N+](=O)[O-])c4)c(Oc4cnc5[nH]ccc5c4)c3)CC2)=C(c2ccc(Cl)cc2)C1 [Venetoclax] | 211 nM | – | 7.28 nM | 1280 nM | 1730 nM | 1450 nM | 115 nM | 34.8 nM | 415 nM | 859 nM | 8.76 nM | – | – |
| CC[C@]1(O)C[C@@H]2CN(CCc3c([nH]c4ccccc34)[C@@](C(=O)OC)(c3cc4c(cc3OC)N(C)[C@H]3[C@@](O)(C(=O)OC)[C@H](OC(C)=O)[C@]5(CC)C=CCN6CC[C@]43[C@@H]65)C2)C1 [Vinblastine] | 3.3 nM | 3.57 nM | 9.24 nM | 3.44 nM | 7.82 nM | 6.11 nM | 3.72 nM | 5.22 nM | 4.62 nM | – | – | – | – |
| COc1cc2c(Nc3ccc(Cl)c(Cl)c3F)ncnc2cc1OC[C@@H]1C[C@@H]2CN(C)C[C@@H]2C1 [XL-647] | – | – | – | – | 183 nM | – | 133 nM | – | – | – | 157 nM | – | – |

— the supplement of paper PMC5908809
